Measured values as given in patent US20170210723A1, “MOLECULES HAVING PESTICIDAL UTILITY, AND INTERMEDIATES, COMPOSITIONS, AND PROCESSES, RELATED THERETO” (priority 2016, published 2017).

Tests used:
Assay type in all cases: in vivo
[1] = system: Beet Armyworm (Spodoptera exigua); experiment: Bioassays on BAW, 128-well diet tray assay; conditions: Spodoptera exigua, 168 h; 50 μg/cm^2 on artificial diet, second instar larvae, five to seven days; read-out: BAW % Control (or Mortality) rating
[2] = system: Cabbage Looper (Trichoplusia ni); experiment: Bioassays on CL, 128-well diet tray assay; conditions: Trichoplusia ni, 168 h; 50 μg/cm^2 on artificial diet, second instar larvae, five to seven days; read-out: CL % Control (or Mortality) rating
In short: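 Second-instar larvae (1–5 per well) were fed diet surface-treated with 50 μg/cm^2 compound, eight wells each. After five to seven days at 25° C. under a 14:10 photoperiod, mortality was scored per well and the eight wells averaged.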

[3] = system: Yellow Fever Mosquito (Aedes aegypti); experiment: Bioassays on Yellow Fever Mosquito larvae, 96-well plate; conditions: from 4000 ppm DMSO master plate, about 1 day-old larvae, 3 days
In short: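 Aedes aegypti larvae about 1 day old, in water with liver powder, exposed in 96-well plates to compounds from a 4000 ppm DMSO master solution diluted in 90:10 water:acetone. Plates covered and held at room temperature for 3 days, then each well scored for mortality; 6 replicate plates.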

Which mortality at 50 µg/cm2 [1] does the source give for `O=C(NC1(CSCC(F)(F)F)CC1)c1ccc(/C=C/C(c2cc(Cl)c(Cl)c(Cl)c2)C(F)(F)F)cc1C(F)(F)F` (stereo not drawn) [F110, (E)-4-(4,4,4-Trifluoro-3-(3,4,5-trichlorophenyl)but-1-en-1-yl)-N-(1-(((2,2,2-trifluoroethyl)thio)methyl)cyclopropyl)-2-(trifluoromethyl)benzamide] here?
The mortality at 50 µg/cm2 was 50 to 100%.

What about the mortality at 50 µg/cm2 [2] of the same molecule?
The mortality at 50 µg/cm2 was 50 to 100%.

And the “YFM % Control (or Mortality) rating” value [3]?
The value was “A (80-100)”.

Which results are given for `O=C(NC1(CS(=O)(=O)CC(F)(F)F)CC1)c1ccc(/C=C/C(c2cc(Cl)c(Cl)c(Cl)c2)C(F)(F)F)cc1C(F)(F)F` (stereo not drawn) [F112, (E)-4-(4,4,4-Trifluoro-3-(3,4,5-trichlorophenyl)but-1-en-1-yl)-N-(1-(((2,2,2-trifluoroethyl)sulfonyl)methyl)cyclopropyl)-2-(trifluoromethyl)benzamide]?
mortality at 50 µg/cm2 [1]: 50 to 100%; mortality at 50 µg/cm2 [2]: 50 to 100%; YFM % Control (or Mortality) rating [3]: A (80-100)

With `CCSC(CNC(=O)c1ccc(/C=C/C(c2cc(Cl)c(Cl)c(Cl)c2)C(F)(F)F)cc1C(F)(F)F)SCC` (stereo not drawn) [F113, (E)-N-(2,2-Bis(ethylthio)ethyl)-4-(4,4,4-trifluoro-3-(3,4,5-trichlorophenyl)but-1-en-1-yl)-2-(trifluoromethyl)benzamide] as the molecule, how does the mortality at 50 µg/cm2 [1] read?
The mortality at 50 µg/cm2 was 50 to 100%.

And the mortality at 50 µg/cm2 [2]?
Its mortality at 50 µg/cm2 is 50 to 100%.

What about the “YFM % Control (or Mortality) rating” value [3] of the same molecule?
The value was “A (80-100)”.

What does the source list for `C[C@H](CS(=O)(=O)CC(F)(F)F)NC(=O)c1ccc(/C=C/C(c2cc(Cl)c(Cl)c(Cl)c2)C(F)F)cc1C(F)(F)F` (stereo partly drawn) [F118, 4-((E)-4,4-Difluoro-3-(3,4,5-trichlorophenyl)but-1-en-1-yl)-N—((R)-1-((2,2,2-trifluoroethyl)sulfonyl)propan-2-yl)-2-(trifluoromethyl)benzamide]?
mortality at 50 µg/cm2 [1]: 50 to 100%; mortality at 50 µg/cm2 [2]: 50 to 100%; YFM % Control (or Mortality) rating [3]: A (80-100)

Which mortality at 50 µg/cm2 [1] does the source give for `NC(=O)[C@H](CSCC(F)(F)F)NC(=O)c1ccc(/C=C/C(c2cc(Cl)c(Cl)c(Cl)c2)C(F)(F)F)cc1C(F)(F)F` (stereo partly drawn) [F125, N—((R)-1-Amino-1-oxo-3-((2,2,2-trifluoroethyl)thio)propan-2-yl)-4-((E)-4,4,4-trifluoro-3-(3,4,5-trichlorophenyl)but-1-en-1-yl)-2-(trifluoromethyl)benzamide] here?
The mortality at 50 µg/cm2 was 50 to 100%.

What about the mortality at 50 µg/cm2 [2] of the same molecule?
The mortality at 50 µg/cm2 was 50 to 100%.

And the “YFM % Control (or Mortality) rating” value [3]?
The value was “A (80-100)”.

`CC(F)(F)C(/C=C/c1ccc(C(=O)NCCS(=O)(=O)CC(F)(F)F)c(C(F)(F)F)c1)c1cc(Cl)c(Cl)c(Cl)c1` (stereo not drawn) [F126, (E)-4-(4,4-Difluoro-3-(3,4,5-trichlorophenyl)pent-1-en-1-yl)-N-(2-((2,2,2-trifluoroethyl)sulfonyl)ethyl)-2-(trifluoromethyl)benzamide] was tested. Which mortality at 50 µg/cm2 [1] did it give?
Its mortality at 50 µg/cm2 is 50 to 100%.

What about the mortality at 50 µg/cm2 [2] of the same molecule?
Its mortality at 50 µg/cm2 is 50 to 100%.

And the “YFM % Control (or Mortality) rating” value [3]?
Its value is “B (More than 0-Less than 80)”.

With `C[C@H](CS(=O)(=O)CC(F)(F)F)NC(=O)c1ccc(/C=C/C(c2cc(Cl)c(F)c(Cl)c2)C(C)(F)F)cc1C(F)(F)F` (stereo partly drawn) [F131, 4-((E)-3-(3,5-Dichloro-4-fluorophenyl)-4,4-difluoropent-1-en-1-yl)-N—((R)-1-((2,2,2-trifluoroethyl)sulfonyl)propan-2-yl)-2-(trifluoromethyl)benzamide] as the molecule, how does the mortality at 50 µg/cm2 [1] read?
Its mortality at 50 µg/cm2 is 50 to 100%.

What about the mortality at 50 µg/cm2 [2] of the same molecule?
The mortality at 50 µg/cm2 was 50 to 100%.

And the “YFM % Control (or Mortality) rating” value [3]?
The value was “D (No activity noticed in this bioassay)”.

Which mortality at 50 µg/cm2 [1] does the source give for `C[C@H](CS(=O)(=O)CC(F)(F)F)NC(=O)c1ccc(/C=C/C(c2cc(Cl)cc(Cl)c2)C(C)(F)F)cc1Cl` (stereo partly drawn) [F132, 2-Chloro-4-((E)-3-(3,5-dichlorophenyl)-4,4-difluoropent-1-en-1-yl)-N—((R)-1-((2,2,2-trifluoroethyl)sulfonyl)propan-2-yl)benzamide] here?
The mortality at 50 µg/cm2 was 50 to 100%.

And the mortality at 50 µg/cm2 [2]?
Its mortality at 50 µg/cm2 is 50 to 100%.

And the “YFM % Control (or Mortality) rating” value [3]?
The value was “B (More than 0-Less than 80)”.
